Laboratory results: the NIST ThermoML archive (doi:10.1021/je034261a)
± gives the expanded uncertainty stated by the source.

Columns and labels:
[1] = for mass density: 101.33 kPa, Liquid; for Glass transition temperature / Normal melting temperature: DTA
[2] = molar heat capacity at constant pressure; conditions: 101.33 kPa, Liquid, Small sample (50 mg) DSC

CCCCn1cc[n+](C)c1C.F[P-](F)(F)(F)(F)F [1-butyl-2,3-dimethylimidazolium hexafluorophosphate]
Conditions | mass density, 295.65 K [kg/m3] | mass density, 313.15 K [kg/m3] | mass density, 323.15 K [kg/m3] | molar heat capacity at constant pressure, 298.15 K [J/K/mol] | molar heat capacity at constant pressure, 323.15 K [J/K/mol]
[1] | 1241.6 ± 4 | 1219 ± 4 | 1205.5 ± 4 | – | –
[2] | – | – | – | 433.6 ± 8.7 | 449.1 ± 9

Conditions | Glass transition temperature [°C]
[1] | -58.0 ± 3

CCCCn1cc[n+](C)c1.[Cl-] [1-butyl-3-methylimidazolium chloride]
Conditions | Glass transition temperature [°C]
[1] | -69.0 ± 3

[2]
Conditions | molar heat capacity at constant pressure [J/K/mol]
298.15 K | 322.7 ± 14
323.15 K | 333.7 ± 14

CCC[n+]1ccn(C)c1C.O=S(=O)([N-]S(=O)(=O)C(F)(F)F)C(F)(F)F
Conditions | mass density, 295.15 K [kg/m3] | mass density, 304.25 K [kg/m3] | mass density, 313.65 K [kg/m3] | mass density, 324.35 K [kg/m3] | mass density, 335.15 K [kg/m3] | mass density, 344.65 K [kg/m3] | molar heat capacity at constant pressure, 298.15 K [J/K/mol] | molar heat capacity at constant pressure, 323.15 K [J/K/mol]
[1] | 1456.7 ± 6.1 | 1454.2 ± 6.4 | 1446.4 ± 6.7 | 1438.6 ± 7 | 1427.5 ± 7.4 | 1415.5 ± 7.7 | – | –
[2] | – | – | – | – | – | – | 554.5 ± 11 | 558.7 ± 11

Conditions | Glass transition temperature [°C]
[1] | -82.0 ± 3

CCCCn1cc[n+](C)c1.N#CN=C=[N-] [1-butyl-3-methylimidazolium dicyanamide]
Conditions | Normal melting temperature, Crystal [°C] | mass density, 297.15 K [kg/m3] | mass density, 312.95 K [kg/m3] | mass density, 324.35 K [kg/m3] | mass density, 333.95 K [kg/m3] | mass density, 344.15 K [kg/m3] | mass density, 355.85 K [kg/m3] | molar heat capacity at constant pressure, 298.15 K [J/K/mol] | molar heat capacity at constant pressure, 323.15 K [J/K/mol]
[1] | -6.0 ± 1 | 1058 ± 4 | 1052.5 ± 4.3 | 1046.6 ± 4.4 | 1041.5 ± 4.6 | 1034 ± 4.8 | 1025.8 ± 5 | – | –
[2] | – | – | – | – | – | – | – | 364.6 ± 16 | 370 ± 16

Conditions | Glass transition temperature [°C]
[1] | -90.0 ± 3

CCn1cc[n+](C)c1.O=S(=O)([N-]S(=O)(=O)C(F)(F)F)C(F)(F)F
Conditions | Normal melting temperature, Metastable crystal [°C] | mass density, 296.15 K [kg/m3] | mass density, 303.95 K [kg/m3] | mass density, 313.85 K [kg/m3] | mass density, 323.45 K [kg/m3] | mass density, 333.65 K [kg/m3] | molar heat capacity at constant pressure, 298.15 K [J/K/mol] | molar heat capacity at constant pressure, 323.15 K [J/K/mol]
[1] | -17.0 ± 2 | 1521.3 ± 2.7 | 1515.9 ± 2.8 | 1506.5 ± 2.9 | 1496.7 ± 3 | 1485.8 ± 3.1 | – | –
[2] | – | – | – | – | – | – | 524.3 ± 10 | 532.2 ± 11

Conditions | Glass transition temperature [°C]
[1] | -92.0 ± 3

CCn1cc[n+](C)c1C.O=S(=O)([N-]S(=O)(=O)C(F)(F)F)C(F)(F)F
Conditions | Normal melting temperature, Crystal [°C] | mass density, 296.15 K [kg/m3] | mass density, 303.75 K [kg/m3] | mass density, 313.55 K [kg/m3] | mass density, 323.35 K [kg/m3] | mass density, 333.65 K [kg/m3] | molar heat capacity at constant pressure, 309.15 K [J/K/mol] | molar heat capacity at constant pressure, 323.15 K [J/K/mol]
[1] | 25.0 ± 1 | 1491.3 ± 2.7 | 1485.5 ± 2.7 | 1476.9 ± 2.8 | 1468 ± 2.9 | 1457.2 ± 3 | – | –
[2] | – | – | – | – | – | – | 492.7 ± 9.9 | 498.8 ± 10

CCCCn1cc[n+](C)c1.F[P-](F)(F)(F)(F)F [1-butyl-3-methylimidazolium hexafluorophosphate]
Conditions | Normal melting temperature, Crystal [°C] | molar heat capacity at constant pressure, 298.15 K [J/K/mol] | molar heat capacity at constant pressure, 323.15 K [J/K/mol]
[1] | 11.0 ± 1 | – | –
[2] | – | 397.6 ± 8 | 405.1 ± 8.1

Conditions | Glass transition temperature [°C]
[1] | -76.0 ± 3

CCCCn1cc[n+](C)c1.[Br-] [1-butyl-3-methylimidazolium bromide]
Conditions | Glass transition temperature [°C]
[1] | -50.0 ± 3

[2]
Conditions | molar heat capacity at constant pressure [J/K/mol]
298.15 K | 316.7 ± 13
323.15 K | 323.6 ± 14

CCCCn1cc[n+](C)c1C.F[B-](F)(F)F [1-butyl-2,3-dimethylimidazolium tetrafluoroborate]
Conditions | Normal melting temperature, Crystal [°C] | mass density, 300.15 K [kg/m3] | mass density, 313.15 K [kg/m3] | mass density, 323.15 K [kg/m3] | molar heat capacity at constant pressure, 330.15 K [J/K/mol] | molar heat capacity at constant pressure, 372.15 K [J/K/mol]
[1] | 37.0 ± 1 | 1093.5 ± 3.5 | 1076.2 ± 3.5 | 1063.4 ± 3.5 | – | –
[2] | – | – | – | – | 375.3 ± 7.5 | 406.5 ± 8.1

Conditions | Glass transition temperature [°C]
[1] | -68.0 ± 3

CCCCn1cc[n+](C)c1.O=S(=O)([O-])C(F)(F)F [1-butyl-3-methylimidazolium trifluoromethanesulfonate]
Conditions | Normal melting temperature, Crystal [°C] | mass density, 295.75 K [kg/m3] | mass density, 303.95 K [kg/m3] | mass density, 313.35 K [kg/m3] | mass density, 328.75 K [kg/m3] | mass density, 342.95 K [kg/m3] | molar heat capacity at constant pressure, 298.15 K [J/K/mol] | molar heat capacity at constant pressure, 323.15 K [J/K/mol]
[1] | 13.0 ± 1 | 1301.3 ± 4.1 | 1296.5 ± 4.1 | 1289.4 ± 4.1 | 1279 ± 4.2 | 1270 ± 4.2 | – | –
[2] | – | – | – | – | – | – | 417.2 ± 8.3 | 423.1 ± 8.5

CCCC[n+]1ccn(C)c1.O=S(=O)([N-]S(=O)(=O)C(F)(F)F)C(F)(F)F
Conditions | Normal melting temperature, Crystal [°C] | mass density, 296.45 K [kg/m3] | mass density, 304.15 K [kg/m3] | mass density, 313.45 K [kg/m3] | mass density, 323.35 K [kg/m3] | mass density, 333.75 K [kg/m3] | molar heat capacity at constant pressure, 298.15 K [J/K/mol] | molar heat capacity at constant pressure, 323.15 K [J/K/mol]
[1] | -2.0 ± 1 | 1438.6 ± 2.6 | 1433.6 ± 2.7 | 1424.7 ± 2.8 | 1414.2 ± 2.8 | 1405.4 ± 2.9 | – | –
[2] | – | – | – | – | – | – | 536.3 ± 11 | 543.9 ± 11

Conditions | Glass transition temperature [°C]
[1] | -86.0 ± 3

CCCCn1cc[n+](C)c1.F[B-](F)(F)F [1-butyl-3-methylimidazolium tetrafluoroborate]
Conditions | mass density, 295.45 K [kg/m3] | mass density, 303.85 K [kg/m3] | mass density, 313.55 K [kg/m3] | mass density, 328.25 K [kg/m3] | mass density, 343.85 K [kg/m3] | molar heat capacity at constant pressure, 298.15 K [J/K/mol] | molar heat capacity at constant pressure, 323.15 K [J/K/mol]
[1] | 1204.8 ± 2.3 | 1200.5 ± 2.4 | 1194 ± 2.5 | 1185 ± 2.6 | 1173.7 ± 2.7 | – | –
[2] | – | – | – | – | – | 351.5 ± 7 | 358 ± 7.2

Conditions | Glass transition temperature [°C]
[1] | -85.0 ± 3
